Data reported in patent US6703414B2, “Device and method for treating restenosis” (Arizona Board of Regents on behalf of the University of …, priority 2001, dated 2004).

Columns and labels:
C57BL6 mice = assay: in vivo; conditions: for Maximum tolerated dose mg/kg ip qD × 4: MTD = >10% body weight loss, C57BL6 mice; for Ratio liver toxicity/lymphocyte toxicity: liver toxicity relative to wortmannin/decrease in blood lymphocytes relative to wortmannin
Description: (§1) Highlighted are the compounds being made for antitumor testing.

in vivo = conditions: C57BL6, mouse, in vivo, ip
Description: as §1

mTOR = mTOR (Homo sapiens, UniProt P42345); assay: mTOR inhibition; assay type: biochemical
Description: as §1

[1] = system: NCI cell panel (60 cell lines); assay: cytotoxicity NCI cell panel, MTT assay; conditions: 48 h, read-out: cytotoxicity NCI cell panel IC50
Description: as §1

Row | Compound | Maximum tolerated dose mg/kg ip qD × 4 (C57BL6 mice) [mg/kg] | Ratio liver toxicity/lymphocyte toxicity (C57BL6 mice) | MTD at 4 days (in vivo) [mg/kg] | IC50 (mTOR) [µM] | IC50 [1] [µM]
1 | COC[C@H]1OC(=O)/C(=C/SCc2ccccc2)C2=C(O)C(=O)C3=C([C@H](OC(C)=O)C[C@]4(C)C(=O)CC[C@@H]34)[C@]21C [DJM2-170] | 9 | 1.5 |  |  | 
2 | COC[C@H]1OC(=O)c2coc3c2[C@@]1(C)C1=C(C3=O)[C@@H]2CCC(=O)[C@@]2(C)C[C@H]1OC(C)=O [wortmannin, reference compound] |  |  | 2.5 |  | 
3 | C=CCN(/C=C1/C(=O)O[C@H](COC)[C@@]2(C)C1=C(O)C(=O)C1=C2[C@H](OC(C)=O)C[C@]2(C)C(=O)CC[C@@H]12)CC=C [DJM2-166, Acetic acid 4-diallylaminomethylene-6-hydroxy-1-α-methoxymethyl-10β,13β-dimethyl-3,7,17-trioxo-1,3,4,7,10,11β,12,13,14α,15,16,17-dodecahydro-2-oxa-cyclopenta[α]phenanthren-11-yl ester] |  |  |  | > 3 | 2.2
4 | COC[C@H]1OC(=O)/C(=C/NC(C)C(=O)O)C2=C(O)C(=O)C3=C([C@H](OC(C)=O)C[C@]4(C)C(=O)CC[C@@H]34)[C@]21C (stereo partly drawn) [DJM2-177] | 6 | 0.1 |  |  | 
5 | COC[C@H]1OC(=O)/C(=C/N2CCCC2)C2=C(O)C(=O)C3=C([C@H](OC(C)=O)C[C@]4(C)C(=O)CC[C@@H]34)[C@]21C [DJM2-167, Acetic acid 6-hydroxy-1α-methoxymethyl-10β,13β-dimethyl-3,7,17-trioxo-4-pyrrolidin-1-yl-methylene-1,3,4,7,10,11β,12,13,14α,15,16,17-dodecahydro-2-oxa-cyclopenta[α]phenanthren-11-yl] |  |  |  | > 3 | 0.5
